Experimental data reported in patent publication EP1561465A2, “Methods of use of fluoroquinolone compounds against bacteria” (LG Life Sciences, Ltd., priority 1999, dated 2001).
≈ marks a conversion by molar mass, not a printed value.

What was measured:
Assay type in all cases: cell-based
Streptococcus pneumoniae [1] = assay: MIC by two-fold serial agar dilution, Sensitivity Disk agar-N (Kitasato isolates); details: for MIC90: read-out: MIC90; for MIC: read-out: MIC Range
E. coli = assay: microbe, parasite or virus in culture; details: Escherichia coli
P. aeruginosa = assay: MIC by two-fold serial agar dilution, quinolone-resistant strains; details: Pseudomonas aeruginosa
Streptococcus pneumoniae [2] = assay: MIC by NCCLS broth microdilution, 1100 Japanese clinical isolates 1997-1998; details: for MIC50 / MIC90 / MIC: Streptococcus pneumoniae; for MIC50: read-out: MIC50; for MIC90: read-out: MIC90; for MIC: Streptococcus pneumoniae quinolone resistant
Escherichia coli = assay: as above; details: for MIC50 / MIC90: Escherichia coli
Klebsiella pneumoniae = assay: as above; details: Klebsiella pneumoniae (n=35)
Enterobacter aerogenes = assay: as above; details: Enterobacter aerogenes (n=35)
Enterobacter cloacae = assay: as above; details: Enterobacter cloacae (n=40)
[3] = Streptococcus pneumoniae amoxicillin resistant (n=40)
[4] = Streptococcus pneumoniae amoxicillin susceptible (n=35)
[5] = Streptococcus pneumoniae erythromycin resistant (n=34)
[6] = Streptococcus pneumoniae erythromycin susceptible (n=11)
[7] = Escherichia coli ciprofloxacin susceptible (n=37)

SMILES: NC1CCN(c2nc3c(cc2F)c(=O)c(C(=O)O)cn3-c2ccc(F)cc2F)C1 (centres unmarked) [Tosufloxacin, tosufloxacin]
- MIC50 (Streptococcus pneumoniae [1]; Ciprofloxacin-susceptible (94)): 0.125 µg/mL (≈ 0.309 µM)
- MIC50 (Streptococcus pneumoniae [1]; Erythromycin-resistant (37)): 0.125 µg/mL (≈ 0.309 µM)
- MIC50 (Streptococcus pneumoniae [1]; Minocycline-resistant (37)): 0.125 µg/mL (≈ 0.309 µM)
- MIC50 (Streptococcus pneumoniae [1]; Streptococcus pneumoniae): 0.125 µg/mL (≈ 0.309 µM)
- MIC90 (Streptococcus pneumoniae [1]; Streptococcus pneumoniae, 18 h, Ciprofloxacin-resistant (21), ciprofloxacin MIC ≥8 µg/ml): 8 µg/mL (≈ 19.8 µM)
- MIC (Streptococcus pneumoniae [1]; Streptococcus pneumoniae, 18 h, Ciprofloxacin-resistant (21)): 0.25 to 16 µg/mL (≈ 0.618 to 39.6 µM)
- MIC (Streptococcus pneumoniae [1]; Streptococcus pneumoniae, 18 h, Ciprofloxacin-susceptible (94)): 0.063 to 0.5 µg/mL (≈ 0.156 to 1.24 µM)
- MIC (Streptococcus pneumoniae [1]; Streptococcus pneumoniae, 18 h, Erythromycin-resistant (37)): 0.063 to 4 µg/mL (≈ 0.156 to 9.89 µM)
- MIC (Streptococcus pneumoniae [1]; Streptococcus pneumoniae, 18 h, Minocycline-resistant (37)): 0.063 to 4 µg/mL (≈ 0.156 to 9.89 µM)
- MIC (Streptococcus pneumoniae [1]; Streptococcus pneumoniae, 18 h, Penicillin-resistant (19)): 0.063 to 0.5 µg/mL (≈ 0.156 to 1.24 µM)
- MIC50 (Streptococcus pneumoniae [1]; Streptococcus pneumoniae, Ciprofloxacin-resistant (21), read-out: MIC50): 4 µg/mL (≈ 9.89 µM)
- MIC90 (Streptococcus pneumoniae [1]; Streptococcus pneumoniae, Ciprofloxacin-susceptible (94)): 0.25 µg/mL (≈ 0.618 µM)
- MIC90 (Streptococcus pneumoniae [1]; Streptococcus pneumoniae, Erythromycin-resistant (37)): 0.5 µg/mL (≈ 1.24 µM)
- MIC90 (Streptococcus pneumoniae [1]; Streptococcus pneumoniae, Minocycline-resistant (37)): 0.5 µg/mL (≈ 1.24 µM)
- MIC90 (Streptococcus pneumoniae [1]; Streptococcus pneumoniae, Penicillin-resistant (19)): 0.25 µg/mL (≈ 0.618 µM)
- MIC50 (E. coli; E. coli (13 strains), quinolone-resistant, read-out: MIC50): 0.063 µg/mL (≈ 0.156 µM)
- MIC90 (E. coli; E. coli (13 strains), quinolone-resistant, read-out: MIC90): 0.25 µg/mL (≈ 0.618 µM)
- MIC (E. coli; E. coli KU1029, mutant type SP (spontaneous mutant in the DNA gyrase)): 0.063 µg/mL (≈ 0.156 µM)
- MIC (E. coli; E. coli KU1030, mutant type SP): 0.031 µg/mL (≈ 0.0767 µM)
- MIC (E. coli; E. coli KU1031, mutant type SP): 0.031 µg/mL (≈ 0.0767 µM)
- MIC (E. coli; E. coli KU1032, mutant type SP): 0.125 µg/mL (≈ 0.309 µM)
- MIC (E. coli; E. coli KU1033, mutant type SP): 0.031 µg/mL (≈ 0.0767 µM)
- MIC (E. coli; E. coli KU1034, mutant type GA (DNA gyrase A)): 0.25 µg/mL (≈ 0.618 µM)
- MIC (E. coli; E. coli KU1035, mutant type GA (DNA gyrase A)): 0.25 µg/mL (≈ 0.618 µM)
- MIC (E. coli; E. coli KU1036, mutant type GB (DNA gyrase B)): 0.031 µg/mL (≈ 0.0767 µM)
- MIC (E. coli; E. coli KU1038, mutant type SP): 0.063 µg/mL (≈ 0.156 µM)
- MIC (E. coli; E. coli KU1039, mutant type SP): 0.063 µg/mL (≈ 0.156 µM)
- MIC (E. coli; E. coli KU1040, mutant type SP): ≤ 0.008 µg/mL
- MIC (E. coli; E. coli KU1041, mutant type SP): 0.25 µg/mL (≈ 0.618 µM)
- MIC (E. coli; E. coli KU1042, mutant type SP): 0.063 µg/mL (≈ 0.156 µM)
- MIC (P. aeruginosa): 1 µg/mL (≈ 2.47 µM)
- MIC Range (Streptococcus pneumoniae [2]; [3]): 0.063 to 4 µg/mL
- MIC Range (Streptococcus pneumoniae [2]; [4]): 0.125 to 2 µg/mL
- MIC Range (Streptococcus pneumoniae [2]; [5]): 0.063 to 4 µg/mL
- MIC Range (Streptococcus pneumoniae [2]; [6]): 0.125 to 0.25 µg/mL
- MIC50 (Streptococcus pneumoniae [2]; [3]): 0.25 µg/mL (≈ 0.618 µM)
- MIC90 (Streptococcus pneumoniae [2]; [3]): 0.25 µg/mL (≈ 0.618 µM)
- MIC50 (Streptococcus pneumoniae [2]; [4]): 0.25 µg/mL (≈ 0.618 µM)
- MIC90 (Streptococcus pneumoniae [2]; [4]): 0.5 µg/mL (≈ 1.24 µM)
- MIC50 (Streptococcus pneumoniae [2]; [5]): 0.25 µg/mL (≈ 0.618 µM)
- MIC90 (Streptococcus pneumoniae [2]; [5]): 0.25 µg/mL (≈ 0.618 µM)
- MIC50 (Streptococcus pneumoniae [2]; [6]): 0.25 µg/mL (≈ 0.618 µM)
- MIC90 (Streptococcus pneumoniae [2]; [6]): 0.25 µg/mL (≈ 0.618 µM)
- MIC (Streptococcus pneumoniae [2]; strain TMS1): 0.5 µg/mL (≈ 1.24 µM)
- MIC (Streptococcus pneumoniae [2]; strain TMS2): 8 µg/mL (≈ 19.8 µM)
- MIC Range (Escherichia coli; [7]): ≤0.008 to 0.25 µg/mL
- MIC50 (Escherichia coli; Escherichia coli ciprofloxacin resistant (n=5)): 32 µg/mL (≈ 79.1 µM)
- MIC90 (Escherichia coli; Escherichia coli ciprofloxacin resistant (n=5), values marked *: MIC80 value): 32 µg/mL (≈ 79.1 µM)
- MIC50 (Escherichia coli; [7]): 0.032 µg/mL (≈ 0.0791 µM)
- MIC90 (Escherichia coli; [7]): 0.032 µg/mL (≈ 0.0791 µM)
- MIC50 (Klebsiella pneumoniae): 0.032 µg/mL (≈ 0.0791 µM)
- MIC Range (Klebsiella pneumoniae): 0.016 to 2 µg/mL
- MIC90 (Klebsiella pneumoniae; read-out: MIC90): 0.063 µg/mL (≈ 0.156 µM)
- MIC Range (Enterobacter aerogenes): 0.016 to 0.125 µg/mL
- MIC50 (Enterobacter aerogenes; Klebsiella aerogenes): 0.016 µg/mL (≈ 0.0396 µM)
- MIC90 (Enterobacter aerogenes; Klebsiella aerogenes): 0.063 µg/mL (≈ 0.156 µM)
- MIC50 (Enterobacter cloacae): 0.032 µg/mL (≈ 0.0791 µM)
- MIC90 (Enterobacter cloacae): 1 µg/mL (≈ 2.47 µM)
- MIC Range (Enterobacter cloacae): ≤0.008 to 2 µg/mL
